Assay results: US10538555B2, “Macrocyclic inhibitors of the PD-1/PD-L1 and CD80(B7-1)/PD-L1 protein/protein interactions” (BRISTOL-MYERS SQUIBB COMPANY, priority 2014, dated 2020)
*1 amine or outer side, *2 acyl side, *3 side chain or, on linkers, in order; H or OH if unused. Where a SMILES comes first, the peptide text is derived from it. Bridges are numbered along the chain shown (N, C = ends). [ ]: non-standard residue; d: D form. ξ: configuration not given here. Trp(1-CH2COOH) = N[C@@H](Cc1cn(CC(=O)O)c2ccccc12)C(=O)O; Phe(2,4-Cl2) = N[C@@H](Cc1ccc(Cl)cc1Cl)C(=O)O; Phe(3,4-F2) = N[C@@H](Cc1ccc(F)c(F)c1)C(=O)O; X8 = O=C([C@H](CC1CNc2ccccc21)N[*:1])[*:2]; ξPro(4R-OH) = O=C(O)C1C[C@@H](O)CN1; Hyp = O=C(O)[C@@H]1C[C@@H](O)CN1; NMeAhp(2) = CCCCC[C@H](NC)C(=O)O; Aad = N[C@@H](CCCC(=O)O)C(=O)O; NMeNle = CCCC[C@H](NC)C(=O)O; ξR = N=C(N)NCCCC(N)C(=O)O; NMeA = CN[C@@H](C)C(=O)O; Dab = NCC[C@H](N)C(=O)O; Dap = NC[C@H](N)C(=O)O; ξP = O=C(O)C1CCCN1

Biological target: T1, Human PD-L1/PD-1 (Homo sapiens, UniProt Q9NZQ7)
T1 construct: TVMV protease cleavage site (C); made in house; host or cells: HEK293T cells
T1 sequence (Q9NZQ7 with tags, fused parts or gaps): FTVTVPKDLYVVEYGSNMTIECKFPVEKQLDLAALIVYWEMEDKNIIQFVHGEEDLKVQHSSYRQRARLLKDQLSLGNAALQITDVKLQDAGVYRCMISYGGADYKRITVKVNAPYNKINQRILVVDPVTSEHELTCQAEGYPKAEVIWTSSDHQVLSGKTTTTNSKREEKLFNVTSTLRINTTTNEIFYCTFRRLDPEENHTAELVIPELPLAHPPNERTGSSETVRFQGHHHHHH
Test: HTRF Human PD-L1/PD-1 binding assay (PD-1-Ig/PD-L1-His)
Settings: PD-L1-His 10 nM, PD-1-Ig 20 nM; class symbol; read-out: HTRF Human PD-L1/PD-1 Binding Assay IC50 Range
Method in brief: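 Step 1: compound with PD-L1-His (10 nM final), 15 min. Step 2: PD-1-Ig (20 nM final), 15 min. Step 3: Eu-cryptate anti-Ig (1 nM) plus APC anti-His (20 nM), 30 min equilibration. Signal taken as 665 nm/620 nm ratio.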

IC50 [nM]	Structure (SMILES)
1 to 9.9	CCCC[C@H]1C(=O)N(C)[C@@H](CCCC)C(=O)N[C@@H](CN)C(=O)N[C@H](C(=O)NCC(N)=O)CSCC(=O)N[C@@H](Cc2ccc(O)cc2)C(=O)N(C)[C@@H](C)C(=O)N[C@@H](CC(N)=O)C(=O)N2CCC[C@H]2C(=O)N[C@@H](CN)C(=O)N[C@@H](CCC(=O)O)C(=O)N2C[C@H](O)C[C@H]2C(=O)N[C@@H](Cc2c[nH]c3ccccc23)C(=O)N[C@@H](CCN)C(=O)N[C@@H](Cc2cn(CC(=O)O)c3ccccc23)C(=O)N1C [Example 6301] ({CH2CO}-Y[NMeA]NP[Dap]E[Hyp]W[Dab][Trp(1-CH2COOH)][NMeNle][NMeNle][Dap]CG-NH2; thioether N-14)
1 to 9.9	CCCC[C@H]1C(=O)N(C)[C@@H](CCCC)C(=O)N[C@@H](CN)C(=O)N[C@H](C(=O)NCC(N)=O)CSCC(=O)N[C@@H](Cc2ccc(O)cc2)C(=O)N(C)[C@@H](C)C(=O)N[C@@H](CC(N)=O)C(=O)N2CCC[C@H]2C(=O)N[C@@H](CN)C(=O)N[C@@H](CC(C)C)C(=O)N2C[C@H](O)C[C@H]2C(=O)N[C@@H](Cc2c[nH]c3ccccc23)C(=O)N[C@@H](CCN)C(=O)N[C@@H](Cc2cn(CC(=O)O)c3ccccc23)C(=O)N1C [Example 6303] ({CH2CO}-Y[NMeA]NP[Dap]L[Hyp]W[Dab][Trp(1-CH2COOH)][NMeNle][NMeNle][Dap]CG-NH2; thioether N-14)
10 to 99.9	CCCC[C@H]1C(=O)N(C)[C@@H](CCCC)C(=O)N[C@@H](CC(C)C)C(=O)N[C@H](C(N)=O)CSCC(=O)N[C@@H](Cc2ccc(O)cc2)C(=O)N(C)[C@@H](C)C(=O)N[C@@H](CC(N)=O)C(=O)N2CCC[C@H]2C(=O)N[C@@H](CN)C(=O)N[C@@H](CC(C)C)C(=O)N2C[C@H](O)C[C@H]2C(=O)N[C@@H](Cc2c[nH]c3ccccc23)C(=O)N[C@@H](CCN)C(=O)N[C@@H](Cc2cn(CC(=O)O)c3ccccc23)C(=O)N1C [Example 6310] ({CH2CO}-Y[NMeA]NP[Dap]L[Hyp]W[Dab][Trp(1-CH2COOH)][NMeNle][NMeNle]LC-NH2; thioether N-14)
1 to 9.9	CCCC[C@H]1C(=O)N(C)[C@@H](CCCC)C(=O)N[C@@H](CCC(=O)O)C(=O)N[C@H](C(=O)NCC(N)=O)CSCC(=O)N[C@@H](Cc2ccc(O)cc2)C(=O)N(C)[C@@H](C)C(=O)N[C@@H](CC(N)=O)C(=O)N2CCC[C@H]2C(=O)N[C@@H](Cc2cnc[nH]2)C(=O)N[C@@H](CCC(N)=O)C(=O)N2C[C@H](O)C[C@H]2C(=O)N[C@@H](Cc2c[nH]c3ccccc23)C(=O)N[C@@H](CCCCN)C(=O)N[C@@H](Cc2cn(CC(=O)O)c3ccccc23)C(=O)N1C [Example 6324] ({CH2CO}-Y[NMeA]NPHQ[Hyp]WK[Trp(1-CH2COOH)][NMeNle][NMeNle]ECG-NH2; thioether N-14)
1 to 9.9	CCCC[C@H]1C(=O)N(C)[C@@H](CCCC)C(=O)N[C@@H](CCN)C(=O)N[C@H](C(=O)NCC(N)=O)CSCC(=O)N[C@@H](Cc2ccc(O)cc2)C(=O)N(C)[C@@H](C)C(=O)N[C@@H](CC(N)=O)C(=O)N2CCC[C@H]2C(=O)N[C@@H](Cc2cnc[nH]2)C(=O)N[C@@H](CCC(=O)O)C(=O)N2C[C@H](O)C[C@H]2C(=O)N[C@@H](Cc2c[nH]c3ccccc23)C(=O)N[C@@H](CCN)C(=O)N[C@@H](Cc2cn(CC(=O)O)c3ccccc23)C(=O)N1C [Example 6331] ({CH2CO}-Y[NMeA]NPHE[Hyp]W[Dab][Trp(1-CH2COOH)][NMeNle][NMeNle][Dab]CG-NH2; thioether N-14)
1 to 9.9	CCCC[C@H]1C(=O)N(C)[C@@H](CCCC)C(=O)N[C@@H](CC(=O)O)C(=O)N[C@H](C(N)=O)CSCC(=O)N[C@@H](Cc2ccc(O)cc2)C(=O)N(C)[C@@H](C)C(=O)N[C@@H](CC(N)=O)C(=O)N2CCC[C@H]2C(=O)N[C@@H](CN)C(=O)N[C@@H](CC(C)C)C(=O)N2C[C@H](O)C[C@H]2C(=O)N[C@@H](Cc2c[nH]c3ccccc23)C(=O)N[C@@H](CO)C(=O)N[C@@H](Cc2cn(CC(=O)O)c3ccccc23)C(=O)N1C [Example 6334] ({CH2CO}-Y[NMeA]NP[Dap]L[Hyp]WS[Trp(1-CH2COOH)][NMeNle][NMeNle]DC-NH2; thioether N-14)
1 to 9.9	CCCC[C@H]1C(=O)N(C)[C@@H](CCCC)C(=O)N[C@@H](CCC(=O)O)C(=O)N[C@H](C(=O)NCC(N)=O)CSCC(=O)N[C@@H](Cc2ccc(O)cc2)C(=O)N(C)[C@@H](C)C(=O)N[C@@H](CC(=O)O)C(=O)N2CCC[C@H]2C(=O)N[C@@H](Cc2cnc[nH]2)C(=O)N[C@@H](CCC(N)=O)C(=O)N2C[C@H](O)C[C@H]2C(=O)N[C@@H](Cc2c[nH]c3ccccc23)C(=O)N[C@@H](CO)C(=O)N[C@@H](Cc2cn(CC(=O)O)c3ccccc23)C(=O)N1C [Example 6335] ({CH2CO}-Y[NMeA]DPHQ[Hyp]WS[Trp(1-CH2COOH)][NMeNle][NMeNle]ECG-NH2; thioether N-14)
10 to 99.9	CCCC[C@H]1C(=O)N(C)[C@@H](CCCC)C(=O)N[C@@H](CCCNC(=N)N)C(=O)N[C@H](C(=O)NCC(N)=O)CSCC(=O)N[C@@H](Cc2ccc(O)cc2)C(=O)N(C)[C@@H](C)C(=O)N[C@@H](CC(N)=O)C(=O)N2CCC[C@H]2C(=O)N[C@@H](Cc2cnc[nH]2)C(=O)N[C@@H](CCCCN)C(=O)N2C[C@H](O)C[C@H]2C(=O)N[C@@H](Cc2c[nH]c3ccccc23)C(=O)N[C@@H](CO)C(=O)N[C@@H](Cc2cn(CC(=O)O)c3ccccc23)C(=O)N1C [Example 6338] ({CH2CO}-Y[NMeA]NPHK[Hyp]WS[Trp(1-CH2COOH)][NMeNle][NMeNle]RCG-NH2; thioether N-14)
1 to 9.9	CCCC[C@H]1C(=O)N(C)[C@@H](CCCC)C(=O)N[C@@H](CCC(=O)O)C(=O)N[C@H](C(=O)NCC(N)=O)CSCC(=O)N[C@@H](Cc2ccc(O)cc2)C(=O)N(C)[C@@H](C)C(=O)N[C@@H](CC(N)=O)C(=O)N2CCCC2C(=O)N[C@@H](CN)C(=O)N[C@@H](CC(C)C)C(=O)N2C[C@H](O)C[C@H]2C(=O)N[C@@H](Cc2c[nH]c3ccccc23)C(=O)N[C@@H](CCN)C(=O)N[C@@H](Cc2cn(CC(=O)O)c3ccccc23)C(=O)N1C (some centres unmarked) [Example 6344] ({CH2CO}-Y[NMeA]N[ξP][Dap]L[Hyp]W[Dab][Trp(1-CH2COOH)][NMeNle][NMeNle]ECG-NH2; thioether N-14)
10 to 99.9	CCCC[C@H]1C(=O)N(C)[C@@H](CCCC)C(=O)N[C@@H](CC(C)C)C(=O)N[C@H](C(=O)NCC(N)=O)CSCC(=O)N[C@@H](Cc2ccc(O)cc2)C(=O)N(C)[C@@H](C)C(=O)N[C@@H](CC(=O)O)C(=O)N2CCC[C@H]2C(=O)N[C@@H](Cc2cnc[nH]2)C(=O)N[C@@H](CCC(N)=O)C(=O)N2C[C@H](O)C[C@H]2C(=O)N[C@@H](Cc2c[nH]c3ccccc23)C(=O)N[C@@H](CCN)C(=O)N[C@@H](Cc2cn(CC(=O)O)c3ccccc23)C(=O)N1C [Example 6416] ({CH2CO}-Y[NMeA]DPHQ[Hyp]W[Dab][Trp(1-CH2COOH)][NMeNle][NMeNle]LCG-NH2; thioether N-14)
10 to 99.9	CCCC[C@H]1C(=O)N(C)[C@@H](CCCC)C(=O)NC(CCCNC(=N)N)C(=O)N[C@H](C(=O)NCC(N)=O)CCCC(=O)N[C@@H](Cc2ccc(O)cc2)C(=O)N(C)[C@@H](C)C(=O)N[C@@H](CC(N)=O)C(=O)N2CCC[C@H]2C(=O)N[C@@H](CN)C(=O)N[C@@H](CC(C)C)C(=O)N2C[C@H](O)CC2C(=O)N[C@@H](Cc2c[nH]c3ccccc23)C(=O)N[C@@H](CO)C(=O)N[C@@H](Cc2c[nH]c3ccccc23)C(=O)N1C (stereo partly drawn) [Example 7067] (Y[NMeA]NP[Dap]L[ξPro(4R-OH)]WSW[NMeNle][NMeNle][ξR][Aad]G-NH2; lactam N-14)
10 to 99.9	CCCC[C@H]1C(=O)N(C)[C@@H](CCCC)C(=O)N[C@@H](CCCNC(=N)N)C(=O)N[C@H](C(=O)NCC(N)=O)CSCC(=O)N[C@@H](Cc2ccc(F)c(F)c2)C(=O)N(C)[C@@H](C)C(=O)N[C@@H](CC(N)=O)C(=O)N2CCC[C@H]2C(=O)N[C@@H](CN)C(=O)N[C@@H](CC(C)C)C(=O)N2C[C@H](O)C[C@H]2C(=O)N[C@@H](Cc2c[nH]c3ccccc23)C(=O)N[C@@H](CO)C(=O)N[C@@H](Cc2c[nH]c3ccccc23)C(=O)N1C [Example 7068] ({CH2CO}-[Phe(3,4-F2)][NMeA]NP[Dap]L[Hyp]WSW[NMeNle][NMeNle]RCG-NH2; thioether N-14)
1 to 9.9	CCCC[C@H]1C(=O)N(C)[C@@H](CCCC)C(=O)N[C@@H](CCCNC(=N)N)C(=O)N[C@H](C(=O)NCC(N)=O)CSCC(=O)N[C@@H](Cc2ccc(Cl)cc2Cl)C(=O)N(C)[C@@H](C)C(=O)N[C@@H](CC(N)=O)C(=O)N2CCC[C@H]2C(=O)N[C@@H](CN)C(=O)N[C@@H](CC(C)C)C(=O)N2C[C@H](O)C[C@H]2C(=O)N[C@@H](Cc2c[nH]c3ccccc23)C(=O)N[C@@H](CO)C(=O)N[C@@H](CC2CNc3ccccc32)C(=O)N1C (some centres unmarked) [Example 7069] ({CH2CO}-[Phe(2,4-Cl2)][NMeA]NP[Dap]L[Hyp]WS[X8][NMeNle][NMeNle]RCG-NH2; thioether N-14)

Same assay, conditions: PD-L1-His 10 nM, PD-1-Ig 20 nM; read-out: HTRF Human PD-L1/PD-1 Binding Assay IC50

IC50 [nM]	Structure (SMILES)
177	CCCCC[C@H]1C(=O)N[C@@H](CC(C)C)C(=O)N[C@H](C(=O)NCC(N)=O)CSCC(=O)N[C@@H](Cc2ccc(O)cc2)C(=O)N(C)[C@@H](C)C(=O)N[C@@H](CC(N)=O)C(=O)N2CCC[C@H]2C(=O)N[C@@H](Cc2cnc[nH]2)C(=O)N[C@@H](CCC(N)=O)C(=O)N2C[C@H](O)C[C@H]2C(=O)N[C@@H](Cc2c[nH]c3ccccc23)C(=O)N[C@@H](CCN)C(=O)N[C@@H](Cc2cn(CC(=O)O)c3ccccc23)C(=O)N(C)[C@@H](CCCC)C(=O)N1C [Example 6415] ({CH2CO}-Y[NMeA]NPHQ[Hyp]W[Dab][Trp(1-CH2COOH)][NMeNle][NMeAhp(2)]LCG-NH2; thioether N-14)
